From patent US10149876B2, “Tripterygium wilfordii extracts to overcome chemotherapy resistance” (WESTERN UNIVERSITY OF HEALTH SCIENCES, priority 2012, dated 2018)
“And” between values parts separate entries of the source, which are not always exact repeats. Equal values may be shown once. Read-outs that look alike come from different tables or passages of the source.

Assays:
[1] = tested on: DU145 cells; assay: SRB cell viability assay, docetaxel-sensitive DU145 cells; assay type: cell-based; details: Homo sapiens; for viability at 1 pM: docetaxel 0.001 nM 72 h; for viability at 0.000333 µM: docetaxel 0.333 nM 72 h; for viability at 0.001 µM: docetaxel 1 nM 72 h; for viability at 0.00333 µM: docetaxel 3.33 nM 72 h; for viability at 0.01 µM: docetaxel 10 nM 72 h; for viability at 0.0333 µM: docetaxel 33.3 nM 72 h; for viability at 0.1 µM: docetaxel 100 nM 72 h; for IC50: DU-145
Procedure: The chemotherapeutic drugs that were tested for chemosensitization in combination with LTG-E were docetaxel, daunorubicin, Herceptin®, and lapatinib. […] Table 17 also contains the serially-diluted concentrations of drugs that each cell line was tested against.
Using the methods described in Example 2, the chemosensitizing effect of LGT-E pretreatment on docetaxel-treated DU145 cells was studied. […] Table 20 reports control data obtained from DU145 cells that were not pre-treated with LGT-E. FIG. 7 summarizes the data of Tables 19 and 20 in a graphical format.

[2] = tested on: DU145-TxR cells; assay: SRB cell viability assay, docetaxel-resistant DU145-TxR cells; assay type: cell-based; details: Homo sapiens; for IC50: docetaxel, DU-145-TxR; for viability at 1 pM / viability at 0.0001 µM / viability at 0.000333 µM / viability at 0.001 µM / viability at 0.00333 µM / viability at 0.01 µM / viability at 0.0333 µM / viability at 0.1 µM: read-out: % viable, DU145-TxR; for viability at 1 pM: docetaxel 0.001 nM 72 h; for viability at 0.0001 µM: docetaxel 0.1 nM 72 h; for viability at 0.000333 µM: docetaxel 0.333 nM 72 h; for viability at 0.001 µM: docetaxel 1 nM 72 h; for viability at 0.00333 µM: docetaxel 3.33 nM 72 h; for viability at 0.01 µM: docetaxel 10 nM 72 h; for viability at 0.0333 µM: docetaxel 33.3 nM 72 h; for viability at 0.1 µM: docetaxel 100 nM 72 h
Procedure: Using the methods described in Example 2, the chemosensitizing effect of LGT-E pretreatment on docetaxel-treated DU145-TrX cells was studied. […] The DU145-TxR cells were plated at passage 38. […] Tables 6, 8, and 10 report control data obtained from DU145-TxR cells that were not pre-treated with LGT-E. FIG. 4 summarizes the data of Tables 5-10 in a graphical format.

[3] = tested on: K562/Dox cells; assay: SRB cell viability assay, daunorubicin-resistant K562/Dox cells; assay type: cell-based, human; details: 72 h, background = 0.043
[4] = DU-145, read-out: % viable, DU145, LGT-E 50 μg/ml pre-treatment
[5] = DU-145, read-out: % viable, DU145, no LGT-E pre-treatment

CC(=O)O[C@@]12CO[C@@H]1C[C@H](O)[C@@]1(C)C(=O)[C@H](O)C3=C(C)[C@@H](OC(=O)[C@H](O)[C@@H](NC(=O)OC(C)(C)C)c4ccccc4)C[C@@](O)([C@@H](OC(=O)c4ccccc4)[C@H]21)C3(C)C [Docetaxel, docetaxel]
viability at 1 pM [1, 4]: 100% | viability at 0.000333 µM [1, 4]: 100% | viability at 0.001 µM [1, 4]: 97.4% | viability at 0.00333 µM [1, 4]: 54% | viability at 0.01 µM [1, 4]: 23.9% | viability at 0.0333 µM [1, 4]: 9.6% | viability at 0.1 µM [1, 4]: 9.3% | viability at 1 pM [1, 5]: 100% | viability at 0.0001 µM ([1]; DU-145, read-out: % viable, DU145, no LGT-E pre-treatment, docetaxel 0.1 nM 72 h): 100% | viability at 0.000333 µM [1, 5]: 101% | viability at 0.001 µM [1, 5]: 100% | viability at 0.00333 µM [1, 5]: 86.9% | viability at 0.01 µM [1, 5]: 44.4% | viability at 0.0333 µM [1, 5]: 24.1% | viability at 0.1 µM [1, 5]: 21.8% | IC50 ([1]; read-out: IC50 of drug when cells pre-treated with Chemosensitizing Agent before drug treatment): 3.39 nM and 0.00274 µg/mL | IC50 ([1]; read-out: IC50 of drug when cells treated with drug only): 6.65 nM and 0.00537 µg/mL | IC50 ([2]; LGT-E 25 μg/ml pre-treatment, read-out: IC50 of drug when cells pre-treated with Chemosensitizing Agent before drug treatment): 5.76 nM and 0.00465 µg/mL | IC50 ([2]; line of LGT-E 25 μg/ml, read-out: IC50 of drug when cells treated with drug only): > 100 nM and ≥ 0.0808 µg/mL | viability at 1 pM ([2]; LGT-E 25 μg/ml pre-treatment): 100% | viability at 0.0001 µM ([2]; LGT-E 25 μg/ml pre-treatment): 102% | viability at 0.000333 µM ([2]; LGT-E 25 μg/ml pre-treatment): 102% | viability at 0.001 µM ([2]; LGT-E 25 μg/ml pre-treatment): 98.6% | viability at 0.00333 µM ([2]; LGT-E 25 μg/ml pre-treatment): 74.7% | viability at 0.01 µM ([2]; LGT-E 25 μg/ml pre-treatment): 33.5% | viability at 0.0333 µM ([2]; LGT-E 25 μg/ml pre-treatment): 13.7% | viability at 0.1 µM ([2]; LGT-E 25 μg/ml pre-treatment): 6.2% | viability at 1 pM ([2]; LGT-E 50 μg/ml pre-treatment): 100% | viability at 0.000333 µM ([2]; LGT-E 50 μg/ml pre-treatment): 97% | viability at 0.001 µM ([2]; LGT-E 50 μg/ml pre-treatment): 82.1% | viability at 0.00333 µM ([2]; LGT-E 50 μg/ml pre-treatment): 34.4% | viability at 0.01 µM ([2]; LGT-E 50 μg/ml pre-treatment): 11.6% | viability at 0.0333 µM ([2]; LGT-E 50 μg/ml pre-treatment): 5.4% | viability at 0.1 µM ([2]; LGT-E 50 μg/ml pre-treatment): 5.5% | viability at 1 pM ([2]; LGT-E […] pre-treatment): 100% | viability at 0.0001 µM ([2]; LGT-E […] pre-treatment): 98.1% | viability at 0.000333 µM ([2]; LGT-E […] pre-treatment): 96% | viability at 0.001 µM ([2]; LGT-E […] pre-treatment): 98.1% | viability at 0.00333 µM ([2]; LGT-E […] pre-treatment): 91.5% | viability at 0.01 µM ([2]; LGT-E […] pre-treatment): 82.9% | viability at 0.0333 µM ([2]; LGT-E […] pre-treatment): 41% | viability at 0.1 µM ([2]; LGT-E […] pre-treatment): 17.5% | viability at 1 pM ([2]; no pre-treatment (Table 6)): 100% | viability at 0.0001 µM ([2]; no pre-treatment (Table 6)): 103% | viability at 0.000333 µM ([2]; no pre-treatment (Table 6)): 102% | viability at 0.001 µM ([2]; no pre-treatment (Table 6)): 102% | viability at 0.00333 µM ([2]; no pre-treatment (Table 6)): 102% | viability at 0.01 µM ([2]; no pre-treatment (Table 6)): 102% | viability at 0.0333 µM ([2]; no pre-treatment (Table 6)): 101% | viability at 0.1 µM ([2]; no pre-treatment (Table 6)): 94.8% | viability at 1 pM ([2]; no pre-treatment (Table 8)): 100% | viability at 0.0001 µM ([2]; no pre-treatment (Table 8)): 102% | viability at 0.000333 µM ([2]; no pre-treatment (Table 8)): 102% | viability at 0.001 µM ([2]; no pre-treatment (Table 8)): 102% | viability at 0.00333 µM ([2]; no pre-treatment (Table 8)): 102% | viability at 0.01 µM ([2]; no pre-treatment (Table 8)): 100% | viability at 0.0333 µM ([2]; no pre-treatment (Table 8)): 98.1% | viability at 0.1 µM ([2]; no pre-treatment (Table 8)): 91% | viability at 1 pM ([2]; no pre-treatment (Table 10)): 100% | viability at 0.0001 µM ([2]; no pre-treatment (Table 10)): 101% | viability at 0.000333 µM ([2]; no pre-treatment (Table 10)): 97.7% | viability at 0.001 µM ([2]; no pre-treatment (Table 10)): 99.3% | viability at 0.00333 µM ([2]; no pre-treatment (Table 10)): 98.8% | viability at 0.01 µM ([2]; no pre-treatment (Table 10)): 97.2% | viability at 0.0333 µM ([2]; no pre-treatment (Table 10)): 95.4% | viability at 0.1 µM ([2]; no pre-treatment (Table 10)): 90.9% | mean A at 565 nm ([3]; Docetaxel 0.001 nM (so in the source), no LGT-E pre-treatment): 2.771 | mean A at 565 nm ([3]; Docetaxel 0.001 nM (so in the source), pre-treated with 25 μg/ml LGT-E): 2.747 | mean A at 565 nm ([3]; Docetaxel 0.1 nM (so in the source), no LGT-E pre-treatment): 2.933 | mean A at 565 nm ([3]; Docetaxel 0.1 nM (so in the source), pre-treated with 25 μg/ml LGT-E): 2.848 | mean A at 565 nm ([3]; Docetaxel 0.333 nM (so in the source), no LGT-E pre-treatment): 2.960 | mean A at 565 nm ([3]; Docetaxel 0.333 nM (so in the source), pre-treated with 25 μg/ml LGT-E): 2.811 | mean A at 565 nm ([3]; Docetaxel 1 nM (so in the source), no LGT-E pre-treatment): 2.509 | mean A at 565 nm ([3]; Docetaxel 1 nM (so in the source), pre-treated with 25 μg/ml LGT-E): 2.706 | mean A at 565 nm ([3]; Docetaxel 3.33 nM (so in the source), no LGT-E pre-treatment): 2.848 | mean A at 565 nm ([3]; Docetaxel 3.33 nM (so in the source), pre-treated with 25 μg/ml LGT-E): 2.300 | mean A at 565 nm ([3]; Docetaxel 10 nM (so in the source), no LGT-E pre-treatment): 2.716 | mean A at 565 nm ([3]; Docetaxel 10 nM (so in the source), pre-treated with 25 μg/ml LGT-E): 1.259 | mean A at 565 nm ([3]; Docetaxel 33.3 nM (so in the source), pre-treated with 25 μg/ml LGT-E): 1.175 | mean A at 565 nm ([3]; Docetaxel 100 nM (so in the source), no LGT-E pre-treatment): 0.723 | mean A at 565 nm ([3]; Docetaxel 100 nM (so in the source), pre-treated with 25 μg/ml LGT-E): 0.510
